Experimental findings from patent US10253027B2, “Aryl lactam kinase inhibitors” (Bristol-Myers Squibb Company, priority 2013, dated 2019) are described below.

Molecules are shown by their SMILES.

For this assay, the target named is T1, GST-Xa-hAAK1 (Homo sapiens, UniProt Q2M2I8).
T1 construct: made in house
T1 sequence (Q2M2I8 whole entry): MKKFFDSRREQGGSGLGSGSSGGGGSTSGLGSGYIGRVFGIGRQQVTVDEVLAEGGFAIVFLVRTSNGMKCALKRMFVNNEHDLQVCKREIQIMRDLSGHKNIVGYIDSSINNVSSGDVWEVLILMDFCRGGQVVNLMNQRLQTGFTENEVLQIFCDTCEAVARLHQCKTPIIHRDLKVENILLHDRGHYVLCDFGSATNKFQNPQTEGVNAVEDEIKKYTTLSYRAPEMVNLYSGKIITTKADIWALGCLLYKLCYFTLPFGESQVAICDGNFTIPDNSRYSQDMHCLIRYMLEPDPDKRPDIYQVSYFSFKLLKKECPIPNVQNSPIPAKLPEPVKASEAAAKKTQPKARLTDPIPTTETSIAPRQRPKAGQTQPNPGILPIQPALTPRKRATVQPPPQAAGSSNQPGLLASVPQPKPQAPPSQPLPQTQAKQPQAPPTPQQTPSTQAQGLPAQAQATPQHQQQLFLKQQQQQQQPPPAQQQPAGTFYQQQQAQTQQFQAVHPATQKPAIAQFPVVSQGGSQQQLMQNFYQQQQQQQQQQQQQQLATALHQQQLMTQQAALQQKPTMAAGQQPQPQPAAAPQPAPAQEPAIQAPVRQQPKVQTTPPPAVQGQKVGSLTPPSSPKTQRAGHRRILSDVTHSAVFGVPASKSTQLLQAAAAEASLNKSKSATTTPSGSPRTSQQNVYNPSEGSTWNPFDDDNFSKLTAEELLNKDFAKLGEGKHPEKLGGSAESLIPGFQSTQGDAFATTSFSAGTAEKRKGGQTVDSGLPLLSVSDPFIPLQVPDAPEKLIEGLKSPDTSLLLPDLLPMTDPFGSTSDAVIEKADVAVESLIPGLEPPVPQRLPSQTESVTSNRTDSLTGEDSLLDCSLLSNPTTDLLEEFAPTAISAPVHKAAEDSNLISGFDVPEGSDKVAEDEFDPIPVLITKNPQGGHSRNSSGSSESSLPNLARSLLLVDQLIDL
Description: AAK1 Kinase Assay. In kind it is biochemical. The settings on record: IC50 (nM), ATP 22 μM; 3 hours at room temperature; Caliper LabChip 3000. The method, then:
The assays were performed in U-bottom 384-well plates. […] The reactions were initiated by the combination of bacterially expressed, GST-Xa-hAAK1 with substrates and test compounds. The reactions were incubated at room temperature for 3 hours and terminated by adding 60 μl of 35 mM EDTA buffer to each sample. The reactions were analyzed on the Caliper LabChip 3000 (Caliper, Hopkinton, Mass.) by electrophoretic separation of the fluorescent substrate and phosphorylated product. […] Compounds were dissolved at 10 mM in dimethylsulfoxide (DMSO) and evaluated at eleven concentrations. IC50 values were derived by non-linear regression analysis.
Regarding `CC(C)C[C@@H](N)C(=O)Nc1ccc(-c2cnco2)c(C(F)(F)F)c1` [Example 11, (R)-2-Amino-4-methyl-N-(4-(oxazol-5-yl)-3-(trifluoromethyl)phenyl)pentanamide], the IC50 – broadly, the concentration that inhibits the measured activity by half – stood at 1520 nM.
For `CC[C@@H](N)C(=O)Nc1ccc(-c2cnco2)c(OC)c1` [Example 50, (R)-2-Amino-N-(3-methoxy-4-(oxazol-5-yl)phenyl)butanamide] the value was 340 nM.
For `COc1cc(NC(=O)[C@@H](CC(C)C)NS(=O)(=O)c2ccccc2)ccc1-c1cnco1` [Example 71, (R)—N-(3-methoxy-4-(oxazol-5-yl)phenyl)-4-methyl-2-(phenylsulfonamido)pentanamide] the value was 400 nM; for `CCN(C(=O)[C@H](N)CC(C)C)c1ccc(-c2cnco2)c(OC)c1` [Example 10, (R)-2-Amino-N-ethyl-N-(3-methoxy-4-(oxazol-5-yl)phenyl)-4-methylpentanamide], 5010 nM.
The value for `CC(=O)Nc1cc(-c2ccc(NC(=O)[C@H](N)CC(C)C)cc2)ccn1` [Example 118, (R)—N-(4-(2-Acetamidopyridin-4-yl)phenyl)-2-amino-4-methylpentanamide] was 6 nM; that for `COc1cc(NC(=O)[C@H](N)C(C)C)c(F)cc1-c1cnco1` [Example 96, (R)-2-Amino-N-(2-fluoro-5-methoxy-4-(oxazol-5-yl)phenyl)-3-methylbutanamide] was 780 nM; that for `COc1cc(NC(=O)[C@H](N)CC(C)C)ccc1-c1cncs1` [Example 21, (R)-2-Amino-N-(3-methoxy-4-(thiazol-5-yl)phenyl)-4-methylpentanamide] was 275 nM.
For `CCc1cc(NC(=O)[C@H](N)CC(C)C)ccc1-c1cnco1` [Example 14, (R)-2-Amino-N-(3-ethyl-4-(oxazol-5-yl)phenyl)-4-methylpentanamide], the IC50 stood at 97 nM.
For `COc1cc(NC(=O)C(CC(C)C)N[C@H]2CC[C@H](N)CC2)ccc1-c1cnco1` (stereo partly drawn) [Example 31, 2-(trans-4-Aminocyclohexylamino)-N-(3-methoxy-4-(oxazol-5-yl)phenyl)-4-methylpentanamide] the value was 7320 nM; for `COc1cc(NC(=O)[C@H](N)C2CCCC2)ccc1-c1cnco1` [Example 3, (R)-2-Amino-2-cyclopentyl-N-(3-methoxy-4-(oxazol-5-yl)phenyl)acetamide], 53 nM.
`COc1cc(NC(=O)[C@H](N)CC2CCCCC2)ccc1-c1cnco1` [Example 56, (R)-2-Amino-3-cyclohexyl-N-(3-methoxy-4-(oxazol-5-yl)phenyl)propanamide]: the IC50 turned out to be 950 nM.
For the compound `COc1cc(NC(=O)[C@@H](CC(C)C)NS(C)(=O)=O)ccc1-c1cnco1` [Example 68, (R)—N-(3-Methoxy-4-(oxazol-5-yl)phenyl)-4-methyl-2-(methylsulfonamido)pentanamide], the half-inhibitory concentration (IC50) stood at 67 nM.
For `COc1cc(NC(=O)[C@H](N)CC(C)C)ccc1-c1cnc2cccnn12` [Example 46, (R)-2-amino-N-(4-(imidazo[1,2-b]pyridazin-3-yl)-3-methoxyphenyl)-4-methylpentanamide] the value was 2200 nM; for `COc1cc(NC(=O)[C@H]2C[C@H](F)CN2)ccc1-c1cnco1` [Example 89, (2R,4S)-4-Fluoro-N-(3-methoxy-4-(oxazol-5-yl)phenyl)pyrrolidine-2-carboxamide], 2000 nM; for `COc1cc(NC(=O)C(N)CC(C)C)ccc1-c1ccnc(N)c1` (stereo not shown) [Example 45, 2-Amino-N-(4-(2-aminopyridin-4-yl)-3-methoxyphenyl)-4-methylpentanamide], 150 nM.
The value for `COc1cc(NC(=O)[C@H](N)CC(C)C)ccc1-c1ccncc1` [Example 20, (R)-2-Amino-N-(3-methoxy-4-(pyridin-4-yl)phenyl)-4-methylpentanamide] was 63 nM; that for `COc1cc(NC(=O)[C@H]2CCCN2)ccc1-c1cnco1` [Example 2, (R)—N-(3-Methoxy-4-(oxazol-5-yl)phenyl)pyrrolidine-2-carboxamide] was 346 nM.
The value for `COc1cc(NC(=O)[C@H](N)CC2CCC2)c(F)cc1-c1cnco1` (stereo in doubt) [Example 94, 2-Amino-3-cyclobutyl-N-(2-fluoro-5-methoxy-4-(oxazol-5-yl)phenyl)propanamide] was 750 nM; that for `CC(C)C[C@@H](N)C(=O)Nc1ccc(-c2cnco2)c(F)c1` [Example 40, (R)-2-Amino-N-(3-fluoro-4-(oxazol-5-yl)phenyl)-4-methylpentanamide] was 460 nM.
With `COc1cc(NC(=O)CN2CCCC2=O)ccc1-c1cnco1` [Example 59, N-(3-Methoxy-4-(oxazol-5-yl)phenyl)-2-(2-oxopyrrolidin-1-yl)acetamide], the IC50 came to 2400 nM.
For `COc1cc(NC(=O)[C@H](N)C2CCCC2)c(F)cc1-c1cnco1` [Example 100, (R)-2-Amino-2-cyclopentyl-N-(2-fluoro-5-methoxy-4-(oxazol-5-yl)phenyl)acetamide] the value was 530 nM.
The value for `COc1cc(NC(=O)C(CN)CC(C)C)ccc1-c1cnco1` (stereo not shown) [Example 35, 2-(Aminomethyl)-N-(3-methoxy-4-(oxazol-5-yl)phenyl)-4-methylpentanamide] was 83 nM; that for `COc1cc(NC(=O)[C@H](N)CC(C)C)ccc1-c1ccnc(Cl)c1` [Example 43, (R)-2-Amino-N-(4-(2-chloropyridin-4-yl)-3-methoxyphenyl)-4-methylpentanamide] was 260 nM.
On to `COc1cc(NC(=O)C2NCCCC2C(C)C)ccc1-c1cnco1` (stereo not shown) [Example 85, 3-Isopropyl-N-(3-methoxy-4-(oxazol-5-yl)phenyl)piperidine-2-carboxamide], for which the IC50 was 8 nM.
For `COc1cc(NC(=O)[C@H](N)CC(C)C)c(Cl)cc1-c1cnco1` [Example 27, (R)-2-Amino-N-(2-chloro-5-methoxy-4-(oxazol-5-yl)phenyl)-4-methylpentanamide] the value was 54 nM.
For `COc1cc(NC(=O)[C@H](N)CC(C)C)c(-c2nncs2)cc1-c1cnco1` [Example 103] the value was 360 nM; for `COc1cc(NC(=O)[C@@H]2NCCC[C@@H]2C(C)C)ccc1-c1cnco1` [Example 88, (2R,3R)-3-Isopropyl-N-(3-methoxy-4-(oxazol-5-yl)phenyl)piperidine-2-carboxamide], 8 nM.
For `COc1cc(NC(=O)C2NCCC2C(C)C)ccc1-c1cnco1` (single isomer, unassigned) [Example 36, 3-Isopropyl-N-(3-methoxy-4-(oxazol-5-yl)phenyl)pyrrolidine-2-carboxamide] the value was 48 nM; for `CC(C)C[C@@H](N)C(=O)Nc1ccc(-c2ccncc2)cc1-c1ccsc1` [Example 113, (R)-2-Amino-4-methyl-N-(4-(pyridin-4-yl)-2-(thiophen-3-yl)phenyl)pentanamide], 500 nM; for `CC(C)C1CCCNC1C(=O)Nc1ccc(-c2ccncc2)cc1` (mixture of isomers) [Example 119, 3-Isopropyl-N-(4-(pyridin-4-yl)phenyl)piperidine-2-carboxamide], 33 nM.
Turning to `COc1cc(NC(=O)C(CC(C)C)N2CCC(N)CC2)ccc1-c1cnco1` (stereo not shown) [Example 33, 2-(4-Aminopiperidin-1-yl)-N-(3-methoxy-4-(oxazol-5-yl)phenyl)-4-methylpentanamide], the IC50 came to 2100 nM.
